According to PubChem BioAssay (NCI):
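Each compound was tested at five concentrations against cells in 96-well plates for 48 hours. At the TGI there is no net growth.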

Experiments:
Assay in all cases: DTP human tumour cell line panel, 48 h
OVCAR-3 ovarian = tested on: OVCAR-3 ovarian
HOP-18 NSCLC = tested on: HOP-18 NSCLC
SK-OV-3 ovarian = tested on: SK-OV-3 ovarian
SNB-19 CNS = tested on: SNB-19 CNS
SW-620 colon = tested on: SW-620 colon
HOP-62 NSCLC = tested on: HOP-62 NSCLC
HT29 colon = tested on: HT29 colon
786-0 renal = tested on: 786-0 renal
SNB-75 CNS = tested on: SNB-75 CNS
UACC-257 melanoma = tested on: UACC-257 melanoma
OVCAR-5 ovarian = tested on: OVCAR-5 ovarian
NCI-H226 lung = tested on: NCI-H226 lung
OVCAR-8 ovarian = tested on: OVCAR-8 ovarian
M19-MEL melanoma = tested on: M19-MEL melanoma
HCC-2998 colon = tested on: HCC-2998 colon
SK-MEL-5 melanoma = tested on: SK-MEL-5 melanoma
KM20L2 colon = tested on: KM20L2 colon
UACC-62 melanoma = tested on: UACC-62 melanoma
M14 melanoma = tested on: M14 melanoma
MALME-3M melanoma = tested on: MALME-3M melanoma
SF-295 CNS = tested on: SF-295 CNS
DMS 114 small cell lung = tested on: DMS 114 small cell lung
HL-60(TB) leukemia = tested on: HL-60(TB) leukemia
SF-539 CNS = tested on: SF-539 CNS
RPMI-8226 leukemia = tested on: RPMI-8226 leukemia
COLO 205 colon = tested on: COLO 205 colon
DMS 273 small cell lung = tested on: DMS 273 small cell lung
LXFL 529 NSCLC = tested on: LXFL 529 NSCLC
OVCAR-4 ovarian = tested on: OVCAR-4 ovarian
KM12 colon = tested on: KM12 colon
A549 NSCLC = tested on: A549 NSCLC
IGROV1 ovarian = tested on: IGROV1 ovarian
HCT-15 colon = tested on: HCT-15 colon
DLD-1 colon = tested on: DLD-1 colon
K-562 leukemia = tested on: K-562 leukemia
NCI-H460 lung = tested on: NCI-H460 lung
SN12C renal = tested on: SN12C renal
A498 renal = tested on: A498 renal
CAKI-1 renal = tested on: CAKI-1 renal
ACHN renal = tested on: ACHN renal
SNB-78 CNS = tested on: SNB-78 CNS
UO-31 renal = tested on: UO-31 renal
MOLT-4 leukemia = tested on: MOLT-4 leukemia
CCRF-CEM leukemia = tested on: CCRF-CEM leukemia
NCI-H23 lung = tested on: NCI-H23 lung
EKVX NSCLC = tested on: EKVX NSCLC
TK-10 renal = tested on: TK-10 renal
HOP-92 NSCLC = tested on: HOP-92 NSCLC
HCT-116 colon = tested on: HCT-116 colon
SF-268 CNS = tested on: SF-268 CNS
U251 CNS = tested on: U251 CNS
NCI-H522 lung = tested on: NCI-H522 lung
RXF-631 renal = tested on: RXF-631 renal
LOX IMVI melanoma = tested on: LOX IMVI melanoma
SK-MEL-28 melanoma = tested on: SK-MEL-28 melanoma
XF 498 CNS = tested on: XF 498 CNS
RXF 393 renal = tested on: RXF 393 renal
SK-MEL-2 melanoma = tested on: SK-MEL-2 melanoma
SR leukemia = tested on: SR leukemia

O=C(/C=C/c1ccccc1)c1ccc(Cl)cc1Cl
TGI (OVCAR-3 ovarian): 40.2 µM
TGI (HOP-18 NSCLC): 60.5 µM
TGI (SK-OV-3 ovarian): 85.3 µM
TGI (SNB-19 CNS): 65.2 µM
TGI (SW-620 colon): 17.9 µM
TGI (HOP-62 NSCLC): > 100 µM
TGI (HT29 colon): 32.9 µM
TGI (786-0 renal): 33.2 µM
TGI (SNB-75 CNS): 92.7 µM
TGI (UACC-257 melanoma): 63.8 µM
TGI (OVCAR-5 ovarian): 39.5 µM
TGI (NCI-H226 lung): 89.9 µM
TGI (OVCAR-8 ovarian): 28.4 µM
TGI (M19-MEL melanoma): 44.5 µM
TGI (HCC-2998 colon): 40.9 µM
TGI (SK-MEL-5 melanoma): 31.4 µM
TGI (KM20L2 colon): 45.7 µM
TGI (UACC-62 melanoma): 30 µM
TGI (M14 melanoma): 45.3 µM
TGI (MALME-3M melanoma): 46.1 µM
TGI (SF-295 CNS): 41.2 µM
TGI (DMS 114 small cell lung): 33.3 µM
TGI (HL-60(TB) leukemia): 36.2 µM
TGI (SF-539 CNS): 37.9 µM
TGI (RPMI-8226 leukemia): 28.4 µM
TGI (COLO 205 colon): 37.2 µM
TGI (DMS 273 small cell lung): 34 µM
TGI (LXFL 529 NSCLC): 31.1 µM
TGI (OVCAR-4 ovarian): 46.1 µM
TGI (KM12 colon): 34.2 µM
TGI (A549 NSCLC): 60.3 µM
TGI (IGROV1 ovarian): 40.5 µM
TGI (HCT-15 colon): 26.4 µM
TGI (DLD-1 colon): 33.3 µM
TGI (K-562 leukemia): 30.1 µM
TGI (NCI-H460 lung): 33.4 µM
TGI (SN12C renal): 57.7 µM
TGI (A498 renal): 50.6 µM
TGI (CAKI-1 renal): 64 µM
TGI (ACHN renal): 34.1 µM
TGI (SNB-78 CNS): 49.3 µM
TGI (UO-31 renal): > 100 µM
TGI (MOLT-4 leukemia): 42.9 µM
TGI (CCRF-CEM leukemia): 33.1 µM
TGI (NCI-H23 lung): 75.8 µM
TGI (EKVX NSCLC): 62.3 µM
TGI (TK-10 renal): > 100 µM
TGI (HOP-92 NSCLC): 69.3 µM
TGI (HCT-116 colon): 24 µM
TGI (SF-268 CNS): 59.8 µM
TGI (U251 CNS): 34.6 µM
TGI (NCI-H522 lung): 28.3 µM
TGI (RXF-631 renal): > 100 µM

COc1ccc(/C=C/C(=N\NC(=O)c2ccccc2)c2sc(Nc3ccc([N+](=O)[O-])cc3)nc2C)cc1OC
TGI (OVCAR-3 ovarian): 61.5 µM
TGI (LOX IMVI melanoma): 15.9 µM
TGI (HOP-18 NSCLC): 85 µM
TGI (SK-OV-3 ovarian): > 100 µM
TGI (SNB-19 CNS): 32.5 µM
TGI (SW-620 colon): > 100 µM
TGI (HOP-62 NSCLC): 49.9 µM
TGI (SK-MEL-28 melanoma): 47.2 µM
TGI (HT29 colon): > 100 µM
TGI (786-0 renal): 26.5 µM
TGI (SNB-75 CNS): 17.8 µM
TGI (UACC-257 melanoma): 28.1 µM
TGI (OVCAR-5 ovarian): > 100 µM
TGI (NCI-H226 lung): 44.7 µM
TGI (OVCAR-8 ovarian): 27 µM
TGI (M19-MEL melanoma): 70.6 µM
TGI (HCC-2998 colon): > 100 µM
TGI (KM20L2 colon): 97.6 µM
TGI (UACC-62 melanoma): 6.78 µM
TGI (M14 melanoma): 28.9 µM
TGI (MALME-3M melanoma): 43.1 µM
TGI (SF-295 CNS): 26.5 µM
TGI (DMS 114 small cell lung): 62.7 µM
TGI (XF 498 CNS): 29.5 µM
TGI (SF-539 CNS): 69.8 µM
TGI (COLO 205 colon): > 100 µM
TGI (DMS 273 small cell lung): 54.6 µM
TGI (LXFL 529 NSCLC): 24.3 µM
TGI (OVCAR-4 ovarian): 36.9 µM
TGI (RXF 393 renal): 52.5 µM
TGI (KM12 colon): 47.5 µM
TGI (A549 NSCLC): 28.9 µM
TGI (HCT-15 colon): 28.5 µM
TGI (DLD-1 colon): 28.8 µM
TGI (K-562 leukemia): > 100 µM
TGI (SK-MEL-2 melanoma): 33 µM
TGI (NCI-H460 lung): 41.2 µM
TGI (SN12C renal): > 100 µM
TGI (CAKI-1 renal): 32.8 µM
TGI (ACHN renal): 41.8 µM
TGI (SNB-78 CNS): 61.9 µM
TGI (UO-31 renal): 56.6 µM
TGI (SR leukemia): > 100 µM
TGI (MOLT-4 leukemia): > 100 µM
TGI (CCRF-CEM leukemia): > 100 µM
TGI (EKVX NSCLC): 91 µM
TGI (TK-10 renal): 66.5 µM
TGI (HOP-92 NSCLC): 6.41 µM
TGI (HCT-116 colon): > 100 µM
TGI (SF-268 CNS): 33.5 µM
TGI (U251 CNS): 18.6 µM
TGI (NCI-H522 lung): 17.4 µM

C=CCNC(=S)NNC(=O)c1c(C)nc2sccn12
TGI (OVCAR-3 ovarian): > 100 µM
TGI (LOX IMVI melanoma): > 100 µM
TGI (HOP-18 NSCLC): > 100 µM
TGI (SK-OV-3 ovarian): > 100 µM
TGI (SNB-19 CNS): > 100 µM
TGI (SW-620 colon): > 100 µM
TGI (HOP-62 NSCLC): > 100 µM
TGI (SK-MEL-28 melanoma): > 100 µM
TGI (HT29 colon): > 100 µM
TGI (786-0 renal): > 100 µM
TGI (UACC-257 melanoma): > 100 µM
TGI (OVCAR-5 ovarian): > 100 µM
TGI (NCI-H226 lung): > 100 µM
TGI (OVCAR-8 ovarian): > 100 µM
TGI (M19-MEL melanoma): > 100 µM
TGI (HCC-2998 colon): > 100 µM
TGI (SK-MEL-5 melanoma): > 100 µM
TGI (KM20L2 colon): > 100 µM
TGI (UACC-62 melanoma): > 100 µM
TGI (MALME-3M melanoma): > 100 µM
TGI (SF-295 CNS): > 100 µM
TGI (DMS 114 small cell lung): > 100 µM
TGI (HL-60(TB) leukemia): > 100 µM
TGI (XF 498 CNS): > 100 µM
TGI (SF-539 CNS): > 100 µM
TGI (COLO 205 colon): > 100 µM
TGI (DMS 273 small cell lung): > 100 µM
TGI (LXFL 529 NSCLC): > 100 µM
TGI (RXF 393 renal): > 100 µM
TGI (KM12 colon): > 100 µM
TGI (A549 NSCLC): > 100 µM
TGI (IGROV1 ovarian): > 100 µM
TGI (HCT-15 colon): > 100 µM
TGI (DLD-1 colon): > 100 µM
TGI (K-562 leukemia): > 100 µM
TGI (SK-MEL-2 melanoma): > 100 µM
TGI (NCI-H460 lung): > 100 µM
TGI (SN12C renal): > 100 µM
TGI (CAKI-1 renal): > 100 µM
TGI (ACHN renal): > 100 µM
TGI (SR leukemia): > 100 µM
TGI (MOLT-4 leukemia): > 100 µM
TGI (CCRF-CEM leukemia): > 100 µM
TGI (NCI-H23 lung): > 100 µM
TGI (EKVX NSCLC): > 100 µM
TGI (TK-10 renal): > 100 µM
TGI (HOP-92 NSCLC): > 100 µM
TGI (HCT-116 colon): > 100 µM
TGI (SF-268 CNS): > 100 µM
TGI (U251 CNS): > 100 µM
TGI (NCI-H522 lung): > 100 µM
TGI (RXF-631 renal): > 100 µM

CN1NC(c2ccc(Cl)cc2)=C(C#N)C(=O)CC1c1ccccc1 (configuration not stated)
TGI (LOX IMVI melanoma): > 100 µM
TGI (HOP-18 NSCLC): > 100 µM
TGI (SK-OV-3 ovarian): > 100 µM
TGI (SNB-19 CNS): > 100 µM
TGI (SW-620 colon): > 100 µM
TGI (SK-MEL-28 melanoma): > 100 µM
TGI (HT29 colon): > 100 µM
TGI (786-0 renal): > 100 µM
TGI (SNB-75 CNS): > 100 µM
TGI (UACC-257 melanoma): > 100 µM
TGI (OVCAR-5 ovarian): > 100 µM
TGI (SK-MEL-5 melanoma): > 100 µM
TGI (KM20L2 colon): > 100 µM
TGI (SF-295 CNS): > 100 µM
TGI (DMS 114 small cell lung): > 100 µM
TGI (HL-60(TB) leukemia): > 100 µM
TGI (RPMI-8226 leukemia): > 100 µM
TGI (COLO 205 colon): > 100 µM
TGI (DMS 273 small cell lung): > 100 µM
TGI (LXFL 529 NSCLC): > 100 µM
TGI (OVCAR-4 ovarian): > 100 µM
TGI (RXF 393 renal): > 100 µM
TGI (KM12 colon): > 100 µM
TGI (A549 NSCLC): > 100 µM
TGI (HCT-15 colon): > 100 µM
TGI (DLD-1 colon): > 100 µM
TGI (SK-MEL-2 melanoma): > 100 µM
TGI (NCI-H460 lung): > 100 µM
TGI (A498 renal): > 100 µM
TGI (CAKI-1 renal): > 100 µM
TGI (ACHN renal): > 100 µM
TGI (SR leukemia): > 100 µM
TGI (NCI-H23 lung): > 100 µM
TGI (TK-10 renal): > 100 µM
TGI (HOP-92 NSCLC): > 100 µM
TGI (HCT-116 colon): > 100 µM
TGI (SF-268 CNS): > 100 µM
TGI (U251 CNS): > 100 µM
TGI (NCI-H522 lung): > 100 µM
TGI (RXF-631 renal): > 100 µM
